Measurements from PMC8601599, “Computational redesign of a fluorogen activating protein with Rosetta” (PLoS Computational Biology, 2021).
Where a chain is given by its changes, count along the chain named.

Experiments:
Assay in all cases: fluorescence titration
Format in all cases: binding
[1] = biological target: T1, DiB1; DiB-RM (lipocalin Blc mutants) (Escherichia coli, UniProt P0A901, A36C/F53A/N76F/S89Y/S107A/L141N); settings: DiB-RM-V90E; apparent Kd; 1 μM chromophore, varied protein; excitation 490 nm
T1 construct: E. coli XJb(DE3) expression from pBAD, TALON then size exclusion; monomer in solution
T1 sequence (P0A901 20-177 A36C/F53A/N76F/S89Y/S107A/L141N): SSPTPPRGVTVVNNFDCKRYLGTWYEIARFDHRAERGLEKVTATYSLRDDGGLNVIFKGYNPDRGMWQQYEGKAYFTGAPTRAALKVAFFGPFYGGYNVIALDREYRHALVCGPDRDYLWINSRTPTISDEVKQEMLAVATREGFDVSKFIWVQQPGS
Excerpt: (§1) fluorescence titration on DiB1; DiB-RM (lipocalin Blc mutants)

[2] = biological target: T2, DiB1; DiB-RM (lipocalin Blc mutants) (Escherichia coli, UniProt P0A901, A36C/F53A/N76F/S89Y/E90V/L141N); settings: DiB-RM-A107S; apparent Kd; 1 μM chromophore, varied protein; excitation 490 nm
T2 construct: E. coli XJb(DE3) expression from pBAD, TALON then size exclusion; monomer in solution
T2 sequence (P0A901 20-177 A36C/F53A/N76F/S89Y/E90V/L141N): T1 sequence (P0A901 20-177 A36C/F53A/N76F/S89Y/S107A/L141N) with E71V, A88S
Excerpt: as §1

[3] = biological target: T3, DiB1; DiB-RM (lipocalin Blc mutants) (Escherichia coli, UniProt P0A901, A36C/N76F/S89Y/E90V/S107A/L141N); settings: DiB-RM-A53F; apparent Kd; 1 μM chromophore, varied protein; excitation 490 nm
T3 construct: E. coli XJb(DE3) expression from pBAD, TALON then size exclusion; monomer in solution
T3 sequence (P0A901 20-177 A36C/N76F/S89Y/E90V/S107A/L141N): T1 sequence (P0A901 20-177 A36C/F53A/N76F/S89Y/S107A/L141N) with A34F, E71V
Excerpt: as §1

[4] = biological target: T4, DiB1; DiB-RM (lipocalin Blc mutants) (Escherichia coli, UniProt P0A901, A36C/L141N); settings: apparent Kd, 1 μM chromophore, varied protein, excitation 490 nm
T4 construct: E. coli XJb(DE3) expression from pBAD, TALON then size exclusion; monomer in solution
T4 sequence (P0A901 20-177 A36C/L141N): T1 sequence (P0A901 20-177 A36C/F53A/N76F/S89Y/S107A/L141N) with A34F, F57N, Y70S, A88S
Excerpt: as §1

[5] = biological target: T5, DiB1; DiB-RM (lipocalin Blc mutants) (Escherichia coli, UniProt P0A901, A36C/F53A/N76F/S89Y/E90V/S107A/L141N); settings: apparent Kd, 1 μM chromophore, varied protein, excitation 490 nm
T5 construct: E. coli XJb(DE3) expression from pBAD, TALON then size exclusion; monomer in solution
T5 sequence (P0A901 20-177 A36C/F53A/N76F/S89Y/E90V/S107A/L141N): T1 sequence (P0A901 20-177 A36C/F53A/N76F/S89Y/S107A/L141N) with E71V
Excerpt: as §1

[6] = biological target: T6, DiB1; DiB-RM (lipocalin Blc mutants) (Escherichia coli, UniProt P0A901, A36C/F53A/S89Y/E90V/S107A/L141N); settings: DiB-RM-F76N; apparent Kd; 1 μM chromophore, varied protein; excitation 490 nm
T6 construct: E. coli XJb(DE3) expression from pBAD, TALON then size exclusion; monomer in solution
T6 sequence (P0A901 20-177 A36C/F53A/S89Y/E90V/S107A/L141N): T1 sequence (P0A901 20-177 A36C/F53A/N76F/S89Y/S107A/L141N) with F57N, E71V
Excerpt: as §1

[7] = biological target: T7, DiB1; DiB-RM (lipocalin Blc mutants) (Escherichia coli, UniProt P0A901, A36C/F53A/N76F/E90V/S107A/L141N); settings: DiB-RM-Y89S; apparent Kd; 1 μM chromophore, varied protein; excitation 490 nm
T7 construct: E. coli XJb(DE3) expression from pBAD, TALON then size exclusion; monomer in solution
T7 sequence (P0A901 20-177 A36C/F53A/N76F/E90V/S107A/L141N): T1 sequence (P0A901 20-177 A36C/F53A/N76F/S89Y/S107A/L141N) with Y70S, E71V
Excerpt: as §1

DiB-RM-split = biological target: T8, DiB-RM-split (Escherichia coli, UniProt P0A901, A36C/F53A/N76F/S89Y/E90V/S107A/L141N); settings: apparent Kd, 1 μM chromophore, varied protein, excitation 490 nm
T8 construct: gene blc; two co-expressed self-assembling fragments of DiB-RM split between residues 109 and 110; E. coli XJb(DE3), TALON then size exclusion
T8 sequence (P0A901 20-109 A36C/F53A/N76F/S89Y/E90V/S107A): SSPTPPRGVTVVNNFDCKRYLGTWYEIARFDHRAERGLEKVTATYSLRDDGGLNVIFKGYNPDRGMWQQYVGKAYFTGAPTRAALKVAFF
T8 sequence (P0A901 110-177 L141N): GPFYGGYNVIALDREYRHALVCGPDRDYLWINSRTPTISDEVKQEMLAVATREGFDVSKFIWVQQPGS
Excerpt: fluorescence titration on DiB-RM-split

**Q.** How did the Kd [1] turn out when CCN(CC)c1ccc2c(c1)[B-](F)(F)[N+]1=C(C)N(C)C(=O)C1=C2 [M739] was run?
**A.** 380 ± 50 nM

**Q.** And the Kd [2]?
**A.** 290 ± 40 nM

**Q.** And the Kd [3]?
**A.** 160 ± 40 nM

**Q.** And the Kd [4]?
**A.** 40 ± 30 nM

**Q.** And the Kd [5]?
**A.** 170 ± 40 nM

**Q.** And the Kd [6]?
**A.** 70 ± 10 nM

**Q.** And the Kd [7]?
**A.** 660 ± 80 nM

**Q.** And the Kd (DiB-RM-split)?
**A.** 2800 ± 400 nM
